These results are taken from patent US8475804B2 (priority 2009, dated 2013).

Counter-ions that a name gives are not always drawn. Non-standard residues stand in square brackets, D forms with d. Residues, ends and D or L forms follow the SMILES beside them. *: point of attachment. Nva = CCC[C@H](N)C(=O)O; Cbz = O=C(OCc1ccccc1)* A value given as a limit tells only on which side of the number the result lay.

The first assay relates to Ebola virus. Briefly: microbe, parasite or virus in culture. It is filed as cell-based, Ebolavirus (EBOV).
Conditions: not given
On to `CCCC[C@H]1C(=O)O[C@H](C)[C@H](NC(=O)c2cccc(NC=O)c2OC)C(=O)O[C@@H](C)[C@@H]1OC(=O)CC(C)C` [2-Methoxy-antimycin A3], for which the “Max Effect” value worked out at 0.791.

On to `C[C@H]1CCC/C=C/[C@@H]2C[C@H](O)C[C@H]2[C@H](O)/C=C/C(=O)O1` [Brefeldin A], for which the “Max Effect” value is 0.900.

Regarding Guanethidine Monosulfate, the “Max Effect” value stood at 0.793.

`C=CC(C)(C)c1cc(/C=C/C(=O)c2ccc(O)cc2)c(OC)cc1O` [Licochalcone-A]: the “Max Effect” value stood at 0.522.

Take `O=S(=O)([O-])[O-].[Mg+2]` [Magnesium Sulfate]: the “Max Effect” value was found to be 0.719.

With `CNc1ccc2oc(C[C@H]3O[C@@]4(CC[C@H]3C)O[C@H]([C@H](C)C(=O)c3ccc[nH]3)[C@H](C)C[C@H]4C)nc2c1C(=O)O` [Calcimycin A23187], the “Max Effect” value turned out to be 0.789.

Consider `O=C([O-])O.[Na+]` [Sodium Bicarbonate], for which the “Max Effect” value was determined as 0.389.

As for Gramicidin, the “Max Effect” value is 0.678.

For `Nc1ncnc2c1c(I)cn2[C@@H]1O[C@H](CO)[C@@H](O)[C@H]1O` [5-Iodotubercidin], the “Max Effect” value worked out at 0.369.

On to `O=C1Nc2ccc3ncsc3c2/C1=C/c1cnc[nH]1` [PKR inhibitor], for which the “Max Effect” value was found to be 0.434.

For the compound Antimycin A, the “Max Effect” value is given as 0.850.

In the case of `COc1cc(C[C@H]2C(=O)OC[C@@H]2Cc2ccc(OC)c(OC)c2)ccc1O` [(−)-Arctigenin], the “Max Effect” value stood at 0.411.

As for Tunicamycin, the “Max Effect” value is 0.800.

For the compound `CCC[C@@H](C=O)NC(=O)[C@H](CC(C)C)NC(=O)[C@H](CC(C)C)NC(=O)OCc1ccccc1` [MG115] (Cbz-Leu-Leu-[Nva]-aldehyde), the “Max Effect” value is given as 0.693.

`CN(C)C(=O)C(CCN1CCC(O)(c2ccc(Cl)cc2)CC1)(c1ccccc1)c1ccccc1` [Loperamide]: the “Max Effect” value came out at 0.716.

Consider Acetophenazine Maleate, for which the “Max Effect” value is 0.478.

In the case of `CCCCCCCCCCCCCC(=O)O[C@@H]1[C@@H](C)[C@@]2(O)[C@@H](C=C(CO)C[C@]3(O)C(=O)C(C)=C[C@@H]23)[C@@H]2C(C)(C)[C@]12OC(C)=O` [PMA], the “Max Effect” value is given as 0.800.

On to `CC[C@H](C)[C@H](NC(=O)[C@H]([C@@H](C)CC)N(C)C(C)=O)C(=O)N[C@H](C(=O)N[C@@H](CC(C)C)C(=O)[C@@]1(C)CO1)[C@@H](C)O` [Epoxomicin], for which the “Max Effect” value was found to be 0.466.

The assay is the same for the next values; noted with them: Zaire ebolavirus, Vero.
Broadly, the IC50 is the concentration needed to halve the response being measured. On to `CN(C)CCOC(C)(c1ccccc1)c1ccccn1` (stereo not shown) [Doxylamine Succinate], for which the IC50 came to 5.2 µM.

Regarding `O=C(Nc1cc(C(F)(F)F)cc(C(F)(F)F)c1)c1cc(Cl)ccc1O` [IMD-0354], the IC50 worked out at 3.1 µM.

`COc1cc(C=C2CCCC(=Cc3ccc(O)c(OC)c3)C2=O)ccc1O` [2,6-Divanillylidenecyclohexanone]: inhibition was half-maximal at 6.4 µM (IC50).

Consider `O=c1[nH]c2ccccc2n1CCCN1CCN(C(c2ccccc2)c2ccccc2)CC1` [Oxatomide], for which the IC50 worked out at 2.1 µM.

`C#C[C@]1(O)CC[C@H]2[C@@H]3[C@H](C)CC4=C(CCC(=O)C4)[C@H]3CC[C@@]21C` [Tibolone] had an IC50 of 1.2 µM.

`CC1(C)C[C@@H]1C(=O)N/C(=C\CCCCSC[C@H](N)C(=O)O)C(=O)O` [Cilastatin Sodium] yielded an IC50 of 8.8 µM.

Compound `CN1C[C@H](CNC(=O)OCc2ccccc2)C[C@@H]2c3cccc4c3c(cn4C)C[C@H]21` [Metergoline] yielded an IC50 of 6.1 µM.

Regarding `CCCCCC(=O)O[C@]1(C(C)=O)CC[C@H]2[C@@H]3CCC4=CC(=O)CC[C@]4(C)[C@H]3CC[C@@]21C` [Hydroxyprogesterone Caproate], half-maximal inhibition (IC50) was put at 3.7 µM.

Compound `CCOC(=O)c1c(CSc2ccccc2)n(C)c2cc(Br)c(O)c(CN(C)C)c12` [Arbidol] had an IC50 of 6 µM.

`Oc1c(Cl)cc(Cl)c(Cl)c1Cc1c(O)c(Cl)cc(Cl)c1Cl` [Hexachlorophene] showed an IC50 of 3.2 µM.

`CC(=O)N[C@@H](CC(C)C)C(=O)N[C@@H](CC(C)C)C(=O)N[C@H](C=O)CCCNC(=N)N` [Leupeptin HCl] showed an IC50 of 3.2 µM.

Take `CN1CCCC(n2nc(Cc3ccc(Cl)cc3)c3ccccc3c2=O)CC1` (stereo not shown) [Azelastine]: the IC50 stood at 122 µM.

The assay is the same for the next values; noted with them: Zaire ebolavirus, Vero, read-out: Max Effect.
On to `CN(C)CCOC(C)(c1ccccc1)c1ccccn1` (stereo not shown) [Doxylamine Succinate], for which the Emax was 73.1%.

For the compound `O=C(Nc1cc(C(F)(F)F)cc(C(F)(F)F)c1)c1cc(Cl)ccc1O` [IMD-0354], the Emax worked out at 66.1%.

On to `COc1cc(C=C2CCCC(=Cc3ccc(O)c(OC)c3)C2=O)ccc1O` [2,6-Divanillylidenecyclohexanone], for which the Emax was 93.2%.

Consider `O=c1[nH]c2ccccc2n1CCCN1CCN(C(c2ccccc2)c2ccccc2)CC1` [Oxatomide], for which the Emax was determined as 62.2%.

Consider `C#C[C@]1(O)CC[C@H]2[C@@H]3[C@H](C)CC4=C(CCC(=O)C4)[C@H]3CC[C@@]21C` [Tibolone], for which the Emax was determined as 112%.

In the case of `CC1(C)C[C@@H]1C(=O)N/C(=C\CCCCSC[C@H](N)C(=O)O)C(=O)O` [Cilastatin Sodium], the Emax came out at 91.2%.

On to `CN1C[C@H](CNC(=O)OCc2ccccc2)C[C@@H]2c3cccc4c3c(cn4C)C[C@H]21` [Metergoline], for which the Emax was determined as 57.7%.

For `CCCCCC(=O)O[C@]1(C(C)=O)CC[C@H]2[C@@H]3CCC4=CC(=O)CC[C@]4(C)[C@H]3CC[C@@]21C` [Hydroxyprogesterone Caproate], the Emax was 71.9%.

For `CCOC(=O)c1c(CSc2ccccc2)n(C)c2cc(Br)c(O)c(CN(C)C)c12` [Arbidol], the Emax amounted to 59.2%.

As to `Oc1c(Cl)cc(Cl)c(Cl)c1Cc1c(O)c(Cl)cc(Cl)c1Cl` [Hexachlorophene], the Emax was determined as 71.3%.

For `CC(=O)N[C@@H](CC(C)C)C(=O)N[C@@H](CC(C)C)C(=O)N[C@H](C=O)CCCNC(=N)N` [Leupeptin HCl], the Emax is 86.5%.

Consider `CN1CCCC(n2nc(Cc3ccc(Cl)cc3)c3ccccc3c2=O)CC1` (stereo not shown) [Azelastine], for which the Emax worked out at 64.8%.

Staying with this assay, now noted: read-out: IC50.
In the case of `CCCC[C@H]1C(=O)O[C@H](C)[C@H](NC(=O)c2cccc(NC=O)c2OC)C(=O)O[C@@H](C)[C@@H]1OC(=O)CC(C)C` [2-Methoxy-antimycin A3], the 50% inhibitory concentration (IC50) worked out at 1.2 µM.

`C[C@H]1CCC/C=C/[C@@H]2C[C@H](O)C[C@H]2[C@H](O)/C=C/C(=O)O1` [Brefeldin A]: the IC50 was below 1.6 µM.

With Guanethidine Monosulfate, the concentration for half-maximal inhibition (IC50) was 8.7 µM.

In the case of `C=CC(C)(C)c1cc(/C=C/C(=O)c2ccc(O)cc2)c(OC)cc1O` [Licochalcone-A], the IC50 is 4.7 µM.

With `O=S(=O)([O-])[O-].[Mg+2]` [Magnesium Sulfate], the IC50 stood at 9.2 µM.

In the case of `CNc1ccc2oc(C[C@H]3O[C@@]4(CC[C@H]3C)O[C@H]([C@H](C)C(=O)c3ccc[nH]3)[C@H](C)C[C@H]4C)nc2c1C(=O)O` [Calcimycin A23187], the IC50 is 1.1 µM.

As to Antimycin A, the IC50 was below 0.04 µM.

On to Tunicamycin, for which the IC50 was below 0.28 µM.

With `CCC[C@@H](C=O)NC(=O)[C@H](CC(C)C)NC(=O)[C@H](CC(C)C)NC(=O)OCc1ccccc1` [MG115] (Cbz-Leu-Leu-[Nva]-aldehyde), the IC50 is 0.9 µM.

On to `CCCCCCCCCCCCCC(=O)O[C@@H]1[C@@H](C)[C@@]2(O)[C@@H](C=C(CO)C[C@]3(O)C(=O)C(C)=C[C@@H]23)[C@@H]2C(C)(C)[C@]12OC(C)=O` [PMA], for which the IC50 was below 0.18 µM.
